Source: patent US20230278972A1, “SUBSTITUTED HALOALKYL SULFONANILIDE HERBICIDES” (FMC Corporation, priority 2020, published 2023)

What was measured:
Format in all cases: in vivo
kochia (Bassia scoparia) [1] = test: Test A preemergence, kochia; conditions: Preemergence; for Kochia plant response rating: 125 g ai/ha, visual injury on 0 to 100 scale (0 no effect, 100 complete control), approximately 10 days; for Plant response rating, Kochia: 0 to 100 scale (0 no effect, 100 complete control)
How it was run: (§1)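 Compounds in non-phytotoxic solvent with surfactant. Soil: loam/sand. Preemergence via directed soil spray after seeding; postemergence on seedlings 2–10 cm, one- to two-leaf.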

corn (Zea mays) = test: Test A postemergence, corn; conditions: Postemergence, 0 to 100 scale (0 no effect, 100 complete control); for Corn plant response rating: 500 g ai/ha, visual injury vs untreated controls after approx. 10 days
How it was run: as §1

[2] = test system: pigweed (Amaranthus retroflexus); test: Test A preemergence, pigweed; conditions: for Pigweed plant response rating: 125 g ai/ha, visual injury on 0 to 100 scale (0 no effect, 100 complete control), approximately 10 days; for Plant response rating, Pigweed: 0 to 100 scale (0 no effect, 100 complete control)
How it was run: as §1

[3] = test system: Ryegrass, Italian (Italian ryegrass, Lolium multiflorum); test: Test A preemergence, Ryegrass, Italian; conditions: Preemergence; for Ryegrass, Italian plant response rating: 125 g ai/ha, visual injury on 0 to 100 scale (0 no effect, 100 complete control), approximately 10 days; for Plant response rating, Ryegrass, Italian: 0 to 100 scale (0 no effect, 100 complete control)
How it was run: as §1

[4] = test system: Ryegrass, Italian (Italian ryegrass, Lolium multiflorum); test: Test A postemergence, Ryegrass, Italian; conditions: Postemergence, 0 to 100 scale (0 no effect, 100 complete control); for Ryegrass, Italian plant response rating: 500 g ai/ha, visual injury vs untreated controls after approx. 10 days
How it was run: as §1

[5] = test system: galium (catchweed bedstraw, Galium aparine); test: Test A postemergence, galium; conditions: Postemergence, 0 to 100 scale (0 no effect, 100 complete control); for Galium plant response rating: 500 g ai/ha, visual injury vs untreated controls after approx. 10 days
How it was run: as §1

kochia (Bassia scoparia) [6] = test: Test A postemergence, kochia; conditions: Postemergence, 0 to 100 scale (0 no effect, 100 complete control); for Kochia plant response rating: 500 g ai/ha, visual injury vs untreated controls after approx. 10 days
How it was run: as §1

[7] = test system: ragweed (common ragweed, Ambrosia artemisiifolia); test: Test A preemergence, ragweed; conditions: Preemergence; for Ragweed plant response rating: 125 g ai/ha, visual injury on 0 to 100 scale (0 no effect, 100 complete control), approximately 10 days; for Plant response rating, Ragweed: 0 to 100 scale (0 no effect, 100 complete control)
How it was run: as §1

[8] = test system: blackgrass (Alopecurus myosuroides); test: Test A postemergence, blackgrass; conditions: Postemergence, 0 to 100 scale (0 no effect, 100 complete control); for Blackgrass plant response rating: 500 g ai/ha, visual injury vs untreated controls after approx. 10 days
How it was run: as §1

[9] = test system: wheat (Triticum aestivum); test: Test A postemergence, wheat; conditions: Postemergence, 0 to 100 scale (0 no effect, 100 complete control); for Wheat plant response rating: 500 g ai/ha, visual injury vs untreated controls after approx. 10 days
How it was run: as §1

[10] = test system: barnyardgrass (Echinochloa crus-galli); test: Test A postemergence, barnyardgrass; conditions: Postemergence, 0 to 100 scale (0 no effect, 100 complete control); for Barnyardgrass plant response rating: 500 g ai/ha, visual injury vs untreated controls after approx. 10 days
How it was run: as §1

[11] = test system: pigweed (Amaranthus retroflexus); test: Test A postemergence, pigweed; conditions: Postemergence, 0 to 100 scale (0 no effect, 100 complete control); for Pigweed plant response rating: 500 g ai/ha, visual injury vs untreated controls after approx. 10 days
How it was run: as §1

[12] = test system: Foxtail, Giant (giant foxtail, Setaria faberi); test: Test A postemergence, Foxtail, Giant; conditions: Postemergence, 0 to 100 scale (0 no effect, 100 complete control); for Foxtail, Giant plant response rating: 500 g ai/ha, visual injury vs untreated controls after approx. 10 days
How it was run: as §1

[13] = test system: barnyardgrass (Echinochloa crus-galli); test: Test A preemergence, barnyardgrass; conditions: Preemergence; for Barnyardgrass plant response rating: 125 g ai/ha, visual injury on 0 to 100 scale (0 no effect, 100 complete control), approximately 10 days; for Plant response rating, Barnyardgrass: 0 to 100 scale (0 no effect, 100 complete control)
How it was run: as §1

[14] = test system: Foxtail, Giant (giant foxtail, Setaria faberi); test: Test A preemergence, Foxtail, Giant; conditions: Preemergence; for Foxtail, Giant plant response rating: 125 g ai/ha, visual injury on 0 to 100 scale (0 no effect, 100 complete control), approximately 10 days; for Plant response rating, Foxtail, Giant: 0 to 100 scale (0 no effect, 100 complete control)
How it was run: as §1

[15] = test system: ragweed (common ragweed, Ambrosia artemisiifolia); test: Test A postemergence, ragweed; conditions: Postemergence, 0 to 100 scale (0 no effect, 100 complete control); for Ragweed plant response rating: 500 g ai/ha, visual injury vs untreated controls after approx. 10 days
How it was run: as §1

[16] = 125 g ai/ha, visual injury approx. 10 days
[17] = 31 g ai/ha, visual injury, approx. 10 days

Structure (SMILES) | Kochia plant response rating (kochia (Bassia scoparia) [1]) | Plant response rating, Kochia (kochia (Bassia scoparia) [1]; 500 g ai/ha) | Plant response rating, Corn (corn (Zea mays); [16]) | Corn plant response rating (corn (Zea mays)) | Pigweed plant response rating [2] | Plant response rating, Pigweed ([2]; 500 g ai/ha) | Ryegrass, Italian plant response rating [3] | Plant response rating, Ryegrass, Italian ([3]; 500 g ai/ha) | Plant response rating, Ryegrass, Italian [4, 16] | Plant response rating, Galium [5, 16] | Plant response rating, Kochia (kochia (Bassia scoparia) [6]; [16]) | Ragweed plant response rating [7] | Plant response rating, Blackgrass [8, 16] | Plant response rating, Wheat [9, 16] | Plant response rating, Barnyardgrass [10, 16] | Plant response rating, Pigweed [11, 16] | Plant response rating, Foxtail, Giant [12, 16] | Barnyardgrass plant response rating [13] | Foxtail, Giant plant response rating [14] | Plant response rating, Ragweed [15, 16] | other results
COC1CCCN(C(=O)c2cc(N(S(=O)(=O)C(F)(F)F)S(=O)(=O)C(F)(F)F)c(C)cc2C)C1 (stereo not drawn) [Compound 119] | 50 | 100 | 10 | 30 | 100 | 100 | 80 | 100 | 20 | 80 | 20 | 80 | 0 | 10 | 40 | 40 | 30 | 100 | 100 | 70 | Ryegrass, Italian plant response rating [4]: 90; Galium plant response rating [5]: 90; Kochia plant response rating (kochia (Bassia scoparia) [6]): 60; Plant response rating, Ragweed ([7]; 500 g ai/ha): 100; Blackgrass plant response rating [8]: 40; Wheat plant response rating [9]: 70; Barnyardgrass plant response rating [10]: 90; Pigweed plant response rating [11]: 70; Foxtail, Giant plant response rating [12]: 80; Plant response rating, Barnyardgrass ([13]; 500 g ai/ha): 100; Plant response rating, Foxtail, Giant ([14]; 500 g ai/ha): 100; Ragweed plant response rating [15]: 90
Cc1cc(C(=O)N2CCOC(C)(C)C2)cc(NS(=O)(=O)C(F)(F)F)c1Cl [Compound 2] | 50 |  | 30 |  | 100 |  | 50 |  | 40 | 90 | 20 | 90 | 0 | 60 | 80 | 70 | 50 | 60 | 80 | 80 | Plant response rating, Kochia (kochia (Bassia scoparia) [1]; [17]): 20; Plant response rating, Corn (corn (Zea mays); 31 g ai/ha): 20; Plant response rating, Pigweed [2, 17]: 100; Plant response rating, Ryegrass, Italian [3, 17]: 30; Plant response rating, Ryegrass, Italian ([4]; 31 g ai/ha): 0; Plant response rating, Galium ([5]; 31 g ai/ha): 90; Plant response rating, Kochia (kochia (Bassia scoparia) [6]; 31 g ai/ha): 10; Plant response rating, Ragweed [7, 17]: 30; Plant response rating, Blackgrass ([8]; 31 g ai/ha): 0; Plant response rating, Wheat ([9]; 31 g ai/ha): 40; Plant response rating, Barnyardgrass ([10]; 31 g ai/ha): 30; Plant response rating, Pigweed ([11]; 31 g ai/ha): 60; Plant response rating, Foxtail, Giant ([12]; 31 g ai/ha): 20; Plant response rating, Barnyardgrass [13, 17]: 0; Plant response rating, Foxtail, Giant [14, 17]: 80; Plant response rating, Ragweed ([15]; 31 g ai/ha): 30
CC(=O)OCN(c1cc(C2=NO[C@@H]3CCC[C@H]23)c(C)cc1C)S(=O)(=O)C(F)(F)F (relative stereo) [Compound 102] | 70 | 90 | 10 | 30 | 100 | 100 | 90 | 90 | 80 | 100 | 70 | 20 | 0 | 40 | 90 | 70 | 30 | 80 | 80 | 70 | Ryegrass, Italian plant response rating [4]: 90; Galium plant response rating [5]: 100; Kochia plant response rating (kochia (Bassia scoparia) [6]): 90; Plant response rating, Ragweed ([7]; 500 g ai/ha): 70; Blackgrass plant response rating [8]: 0; Wheat plant response rating [9]: 80; Barnyardgrass plant response rating [10]: 90; Pigweed plant response rating [11]: 80; Foxtail, Giant plant response rating [12]: 70; Plant response rating, Barnyardgrass ([13]; 500 g ai/ha): 100; Plant response rating, Foxtail, Giant ([14]; 500 g ai/ha): 90; Ragweed plant response rating [15]: 90
